Test results: patent US12023319B2, “Carboxylic acid aromatic amides” (priority 2016, dated 2024)
pIC50: −log10 of the molar value.

Legend:
[1] = biological target: T1, native human Bradykinin B1 receptor (Homo sapiens, UniProt P46663); assay: Calcium flux assay (FLIPR) with IMR-90 human fibroblasts expressing Bradykinin B1 receptor after IL-1beta induction (hB1 IMR-90); type: cell-based; details: IMR-90 human fibroblasts after IL-1beta induction, read-out: hB1 IMR90 IC50
T1 construct: which express native human Bradykinin B1 receptor after induction with human IL-1beta; Coriell Institute; host or cells: IMR-90 human foetal lung fibroblasts, induced with human IL-1beta
T1 sequence (P46663 1-353): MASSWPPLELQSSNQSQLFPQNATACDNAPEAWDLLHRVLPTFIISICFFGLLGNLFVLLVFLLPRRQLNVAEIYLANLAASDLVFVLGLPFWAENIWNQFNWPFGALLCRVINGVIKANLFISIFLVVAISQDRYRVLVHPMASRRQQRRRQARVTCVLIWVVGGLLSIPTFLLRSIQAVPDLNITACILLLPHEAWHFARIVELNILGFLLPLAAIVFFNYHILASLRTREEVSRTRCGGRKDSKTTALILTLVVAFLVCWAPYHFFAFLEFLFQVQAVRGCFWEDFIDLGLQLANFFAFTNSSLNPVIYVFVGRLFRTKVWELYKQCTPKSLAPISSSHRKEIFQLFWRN
Experimental: Calcium Flux Assay (FLIPR) with Human Fibroblasts Expressing Bradykinin B1 Receptor (hB1 IMR-90)
The Calcium flux Assay was carried out utilising IMR-90 human foetal lung fibroblasts (American Type Culture Collection, Rockville, MD; and Coriell Institute, Camden, New Jersey), which express native human Bradykinin B1 receptor after induction with human IL-1beta.
The fibroblasts were cultured in complete growth media comprised of Dulbecco's modified Eagle's medium (DMEM; Sigma) containing 10% foetal bovine serum, 4 mM L-glutamine, and 1% nonessential amino acids. The cells were maintained in a humidified atmosphere with 5% CO2 at 37° C. and were sub-cultured at a ratio of 1:3, every other day.
For the assay, IMR-90 fibroblasts were harvested using TrypLE Express (GIBCO/Invitrogen) and seeded into 384-well plates (Corning Cellbinding Surface, Cat. 3683) at a density of 15000 cells/well. The following day, cells were treated with 0.35 ng/mL human IL-1beta in 10% FBS/MEM for 3 h to up-regulate Bradykinin B1 receptor. Induced cells were loaded with fluorescent calcium indicator by incubation with 2.5 μM Fluo-4/AM (Invitrogen) at 37° C., 5% CO2 for 2 h in the presence of 2.5 mM probenecid in 1% FBS/MEM. […] Compound examples were assayed at 8 concentrations in triplicate. […] A peptide antagonist Lys-(Des-Arg-Leu)-Bradykinin (Bachem, Brackley) at 20 µM was used to determine the full inhibition as control. IC50 values were determined by the same way described for the FLI PR assay with recombinant cells.

[2] = biological target: T2, human Bradykinin B1 receptor (Homo sapiens, UniProt P46663); assay: Calcium flux assay (FLIPR), CHO-K1 cells expressing human Bradykinin B1 receptor, absence of 0.1% BSA (hB1 free IC50); type: cell-based; details: absence of 0.1% BSA in assay buffer
T2 construct: host or cells: CHO-K1
T2 sequence (P46663 1-353): T1 sequence (P46663 1-353)
Outline: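 CHO-K1 hB1-D1 cells, dye-loaded, given compounds (8 concentrations, triplicate, 1% DMSO) 30 min at 28° C, then stimulated with selective B1 agonist peptide; Ca2+ fluorescence read at 538 nm on FLIPR. Peak response normalised to DMSO and 20 µM Lys-(Des-Arg-Leu)-Bradykinin full inhibition; IC50 fitted.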

Compound | pIC50 [1] | pIC50 [2]
CCOc1ccc(-c2ccc(NC(=O)C3(c4cccc(Cl)c4)CC3)cc2C(=O)O)cn1 [Example 9, 5-({[1-(3-Chlorophenyl)cyclopropyl]carbonyl}amino)-2-(6-ethoxypyridin-3-yl)benzoic acid] | 6.49 | 6.85
CCC(F)(F)c1ccc(-c2ccc(NC(=O)C3(c4ccc(F)c(F)c4)CC3)cc2C(=O)O)cn1 [Example 20, 5-({[1-(3,4-Difluorophenyl)cyclopropyl]carbonyl}amino)-2-[6-(1,1-difluoropropyl)pyridin-3-yl]benzoic acid] | 5.77 | 5.60
Cc1ccc(C2(C(=O)Nc3cc(F)c(-c4cnn(C5CCC5)c4)c(C(=O)O)c3)CC2)c(F)c1 [Example 25, 2-(1-Cyclobutyl-1H-pyrazol-4-yl)-3-fluoro-5-({[1-(2-fluoro-4-methylphenyl)cyclopropyl]carbonyl}amino)benzoic acid] | 8.23 | 7.85
O=C(O)c1cc(NC(=O)C2(c3cccc(Cl)c3)CC2)ccc1-c1cnn(C2CCC2)c1 [Example 28, 5-({[1-(3-Chlorophenyl)cyclopropyl]carbonyl}amino)-2-(1-cyclobutyl-1H-pyrazol-4-yl)benzoic acid] | 6.34 | 6.52
O=C(O)c1cc(NC(=O)C2(c3ccc(OC(F)(F)F)cc3)CC2)cc(F)c1-c1cnn(C2CCC2)c1 [Example 37, 2-(1-Cyclobutyl-1H-pyrazol-4-yl)-3-fluoro-5-[({1-[4-(trifluoromethoxy)phenyl]cyclopropyl}carbonyl)amino]benzoic acid] | 8.25 | 7.70
O=C(O)c1cc(NC(=O)C2(c3ccc(C(F)(F)F)c(F)c3)CC2)cc(F)c1-c1cnn(C2CCC2)c1 [Example 39, 2-(1-Cyclobutyl-1H-pyrazol-4-yl)-3-fluoro-5-[({1-[3-fluoro-4-(trifluoromethyl)phenyl]cyclopropyl}carbonyl)amino]benzoic acid] | 8.21 | 7.74
O=C(O)c1cc(NC(=O)C2(c3ccc(F)cc3F)CC2)cc(F)c1-c1cnn(C2CCC2)c1 [Example 40, 2-(1-Cyclobutyl-1H-pyrazol-4-yl)-5-({[1-(2,4-difluorophenyl)cyclopropyl]carbonyl}amino)-3-fluorobenzoic acid] | 7.96 | 7.80
O=C(O)c1cc(NC(=O)C2(c3ccc(Cl)cc3F)CC2)cc(F)c1-c1cnn(C2CCC2)c1 [Example 41, 5-({[1-(4-Chloro-2-fluorophenyl)cyclopropyl]carbonyl}amino)-2-(1-cyclobutyl-1H-pyrazol-4-yl)-3-fluorobenzoic acid] | 8.43 | 8.06
O=C(O)c1cc(NC(=O)C2(c3ccc(F)cn3)CC2)cc(F)c1-c1cnn(C2CCC2)c1 [Example 44, 2-(1-Cyclobutyl-1H-pyrazol-4-yl)-3-fluoro-5-({[1-(5-fluoropyridin-2-yl)cyclopropyl]carbonyl}amino)benzoic acid] | 7.24 | 7.35
O=C(O)c1cc(NC(=O)C2(c3ccc(Cl)cc3F)CC2)ccc1-c1cnn(C2CCC2)c1 [Example 53, 5-({[1-(4-Chloro-2-fluorophenyl)cyclopropyl]carbonyl}amino)-2-(1-cyclobutyl-1H-pyrazol-4-yl)benzoic acid] | 7.82 | 7.49

Second part, the compound after the results:

pIC50 [1] | pIC50 [2] | Compound
5.47 | 6.96 | O=C(O)c1cc(NC(=O)C2(c3ccc(C(F)(F)F)cc3F)CC2)ccc1-c1ccc(C(F)F)nc1 [Example 4, 2-[6-(Difluoromethyl)pyridin-3-yl]-5-[({1-[2-fluoro-4-(trifluoromethyl)phenyl]cyclopropyl}carbonyl)amino]benzoic acid]
5.96 | 6.70 | O=C(O)c1cc(NC(=O)C2(c3ccc(OC(F)(F)F)cc3F)CC2)ccc1-c1ccc(C(F)(F)F)nc1 [Example 7, 5-[({1-[2-Fluoro-4-(trifluoromethoxy)phenyl]cyclopropyl}carbonyl)amino]-2-[6-(trifluoromethyl)pyridin-3-yl]benzoic acid]
7.48 | 7.74 | CCOc1ccc(-c2ccc(NC(=O)C3(c4ccc(C(F)(F)F)cc4F)CC3)cc2C(=O)O)cn1 [Example 10, 2-(6-Ethoxypyridin-3-yl)-5-[({1-[2-fluoro-4-(trifluoromethyl)phenyl]cyclopropyl}carbonyl)amino]benzoic acid]
7.60 | 7.72 | CCOc1ccc(-c2ccc(NC(=O)C3(c4ccc(OC(F)(F)F)cc4F)CC3)cc2C(=O)O)cn1 [Example 11, 2-(6-Ethoxypyridin-3-yl)-5-[({1-[2-fluoro-4-(trifluoromethoxy)phenyl]cyclopropyl}carbonyl)amino]benzoic acid]
5.54 | 5.92 | CC(C)(C)c1ccn(-c2ccc(NC(=O)C3(c4ccc(C(F)(F)F)cc4F)CC3)cc2C(=O)O)n1 [Example 12, 2-(3-tert-Butyl-1H-pyrazol-1-yl)-5-[({1-[2-fluoro-4-(trifluoromethyl)phenyl]cyclopropyl}carbonyl)amino]benzoic acid]
6.51 | 6.96 | CC(C)(C)c1cnn(-c2ccc(NC(=O)C3(c4ccc(OC(F)(F)F)cc4F)CC3)cc2C(=O)O)c1 [Example 13, 2-(4-tert-Butyl-1H-pyrazol-1-yl)-5-[({1-[2-fluoro-4-(trifluoromethoxy)phenyl]cyclopropyl}carbonyl)amino]benzoic acid]
5.96 | 6.00 | Cc1ccc(C2(C(=O)Nc3ccc(-n4cc(C(C)(C)C)cn4)c(C(=O)O)c3)CC2)c(F)c1 [Example 14, 2-(4-tert-Butyl-1H-pyrazol-1-yl)-5-({[1-(2-fluoro-4-methylphenyl)cyclopropyl]carbonyl}amino)benzoic acid]
7.00 | 6.64 | CC(C)(C)c1cnn(-c2ccc(NC(=O)C3(c4ccc(C(F)(F)F)cc4F)CC3)cc2C(=O)O)c1 [Example 17, 2-(4-tert-Butyl-1H-pyrazol-1-yl)-5-[({1-[2-fluoro-4-(trifluoromethyl)phenyl]cyclopropyl}carbonyl)amino]benzoic acid]
6.08 | 6.57 | Cc1ccc(-c2ccc(NC(=O)C3(c4ccc(C(F)(F)F)cc4F)CC3)cc2C(=O)O)nc1 [Example 18, 5-[({1-[2-Fluoro-4-(trifluoromethyl)phenyl]cyclopropyl}carbonyl)amino]-2-(5-methylpyridin-2-yl)benzoic acid]
6.89 | 7.17 | Cc1ccc(-c2ccc(NC(=O)C3(c4ccc(C(F)(F)F)cc4F)CC3)cc2C(=O)O)cn1 [Example 19, 5-[({1-[2-Fluoro-4-(trifluoromethyl)phenyl]cyclopropyl}carbonyl)amino]-2-(6-methylpyridin-3-yl)benzoic acid]
6.89 | 6.85 | CCC(F)(F)c1ccc(-c2ccc(NC(=O)C3(c4ccc(C)cc4F)CC3)cc2C(=O)O)cn1 [Example 26, 2-[6-(1,1-Difluoropropyl)pyridin-3-yl]-5-({[1-(2-fluoro-4-methylphenyl)cyclopropyl]carbonyl}amino)benzoic acid]
7.14 | 7.48 | CCC(F)(F)c1ccc(-c2ccc(NC(=O)C3(c4ccc(OC(F)(F)F)cc4F)CC3)cc2C(=O)O)cn1 [Example 27, 2-[6-(1,1-Difluoropropyl)pyridin-3-yl]-5-[({1-[2-fluoro-4-(trifluoromethoxy)phenyl]cyclopropyl}carbonyl)amino]benzoic acid]
7.85 | 8.22 | O=C(O)c1cc(NC(=O)C2(c3ccc(C(F)(F)F)cc3)CC2)cc(F)c1-c1cnn(C2CCC2)c1 [Example 36, 2-(1-Cyclobutyl-1H-pyrazol-4-yl)-3-fluoro-5-[({1-[4-(trifluoromethyl)phenyl]cyclopropyl}carbonyl)amino]benzoic acid]
7.72 | 7.77 | O=C(O)c1cc(NC(=O)C2(c3ccc(OC(F)(F)F)cc3F)CC2)ccc1-c1cnn(C2CCC2)c1 [Example 51, 2-(1-Cyclobutyl-1H-pyrazol-4-yl)-5-[({1-[2-fluoro-4-(trifluoromethoxy)phenyl]cyclopropyl}carbonyl)amino]benzoic acid]
